Source: ChEMBL document CHEMBL1201862, “PubChem BioAssay data set” (2004)
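A five-concentration, 48-hour dose response in 96-well plates underlies each endpoint, interpolated linearly between surrounding concentrations. GI50 is the concentration that inhibits growth by half.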 Active and inactive are the calls of the source. Rule as the data show it: active = GI50 up to about 1.1 µM and inactive = higher.

Legend:
Assay in all cases: inhibition of tumour cell growth, NCI panel, 48 h
[1] = test system: NCI-H23
[2] = test system: MDA-MB-435
[3] = test system: RPMI-8226
[4] = test system: SK-OV-3
[5] = test system: CAKI-1
[6] = test system: UACC-62
[7] = test system: MCF7
[8] = test system: A498
[9] = test system: NCI-H522
[10] = test system: Hs-578T
[11] = test system: EKVX
[12] = test system: M14
[13] = test system: SN12C
[14] = test system: SR
[15] = test system: MOLT-4
[16] = test system: UACC-257
[17] = test system: PC-3
[18] = test system: OVCAR-3
[19] = test system: NCI-H226
[20] = test system: NCI/ADR-RES

Measured: GI50

CCOc1ccc(/C=C2\N=C(c3ccc([N+](=O)[O-])cc3)OC2=O)cc1
inactive: [1] > 100 µM | [2] > 100 µM | [3] > 100 µM | [4] > 100 µM | [5] > 100 µM | [6] > 100 µM | [7] > 100 µM | [8] > 100 µM | [9] > 100 µM | [10] > 100 µM | [11] > 100 µM | [12] > 100 µM | [13] > 100 µM | [14] > 100 µM | [15] > 100 µM | [16] > 100 µM | [17] > 100 µM | [18] > 100 µM | [19] > 100 µM

c1ccc2c(c1)ccc1nc(-c3ccc4c(c3)OCO4)c3c(c12)CCCC3
inactive: [1] 13.8 µM | [2] 27.5 µM | [3] 15.5 µM | [4] 43.5 µM | [5] 45.4 µM | [6] 18.8 µM | [7] 24.5 µM | [8] 14.6 µM | [10] 2.39 µM | [11] 37.1 µM | [20] 17.7 µM | [12] 28.7 µM | [13] 26.1 µM | [15] 8.26 µM | [16] 30.1 µM | [17] 8.75 µM | [18] 15.4 µM | [19] 73.1 µM

C[C@]12CC=CC(=O)[C@@]1(C)CCC(=O)C2
inactive: [1] > 100 µM | [4] > 100 µM | [5] > 100 µM | [6] > 100 µM | [8] > 100 µM | [9] > 100 µM | [11] > 100 µM | [12] > 100 µM | [13] > 100 µM | [14] > 100 µM | [15] > 100 µM | [16] > 100 µM | [18] > 100 µM | [19] > 100 µM

NNC(=O)C1(NC(=O)c2ccccc2)C(c2ccccc2)C(c2ccccc2)=NN1c1ccccc1 (centres undefined)
inactive: [1] 54 µM | [2] 29.2 µM | [3] 21.1 µM | [4] 29.9 µM | [5] 15.6 µM | [6] 23.1 µM | [7] 37.9 µM | [8] > 100 µM | [9] 55.3 µM | [11] 42.3 µM | [20] 32.1 µM | [12] 22.8 µM | [13] 63.2 µM | [14] 18.2 µM | [15] 12.7 µM | [16] 43.3 µM | [17] 24.4 µM | [18] 18.1 µM | [19] > 100 µM

C=C(C)C1CC2C(C)=C(OC(C)=O)C1n1c(=O)c3cc4ccccc4cc3c(=O)n12 (centres undefined)
inactive: [1] 50.1 µM | [3] 36 µM | [4] > 100 µM | [5] 62.2 µM | [6] 31.8 µM | [8] > 84.5 µM | [9] 51.5 µM | [11] 64.1 µM | [12] > 100 µM | [13] 98.2 µM | [14] 36 µM | [15] 32.7 µM | [16] > 100 µM | [18] 46.9 µM | [19] 34.7 µM

O=C(O)c1nc2ccc(C(F)(F)F)cc2nc1NCc1ccc(Cl)c(Cl)c1
inactive: [1] 17.7 µM | [2] 15.6 µM | [3] 27.7 µM | [4] 19.4 µM | [5] 19.2 µM | [6] 17.1 µM | [7] 17.8 µM | [8] 17.5 µM | [11] 15.8 µM | [20] 22.2 µM | [12] 17.8 µM | [13] 15.5 µM | [14] 15.6 µM | [15] 12.3 µM | [16] 21.2 µM | [17] 15.3 µM | [18] 7.78 µM | [19] 17.3 µM

CCOC(=O)Nn1c(C)nnc1CC#N
inactive: [1] > 100 µM | [3] > 100 µM | [5] > 100 µM | [6] > 100 µM | [7] > 100 µM | [9] > 100 µM | [10] > 100 µM | [20] > 100 µM | [12] > 100 µM | [13] > 100 µM | [14] > 100 µM | [15] > 100 µM | [16] > 100 µM | [17] > 100 µM | [18] > 100 µM | [19] > 100 µM

COc1cc2c(cc1C)NC(=O)/C2=C/c1cccnc1
inactive: [1] 9.86 µM | [2] 12.9 µM | [4] 7.03 µM | [5] 10.1 µM | [7] 5.74 µM | [8] 10.8 µM | [9] 13 µM | [10] 27.4 µM | [11] 18.3 µM | [20] 12.1 µM | [12] 14 µM | [15] 1.23 µM | [17] 17.9 µM | [18] 12.3 µM

COc1ccc(/C=C2\CCC(C)C3=C(c4ccc(OC)c(OC)c4)C(C#N)=C(N)OC32)cc1OC (centres undefined)
inactive: [1] 2.7 µM | [2] 2.7 µM | [3] 2.04 µM | [4] 3.42 µM | [5] 4.36 µM | [6] 2.86 µM | [7] 3.26 µM | [8] 3.76 µM | [10] 4.42 µM | [11] 1.86 µM | [20] 2.65 µM | [12] 3.17 µM | [13] 3.45 µM | [15] 2.55 µM | [16] 4.18 µM | [17] 3.13 µM | [18] 3.58 µM | [19] 2.39 µM

Cc1n[nH]c(=O)n1/N=C/c1ccc(Cl)cc1
inactive: [1] 27.9 µM | [2] > 100 µM | [3] > 100 µM | [4] 83.4 µM | [5] 52.2 µM | [6] 56.9 µM | [8] 40 µM | [9] 21.7 µM | [11] 13.3 µM | [20] 49.3 µM | [12] > 100 µM | [13] 70.6 µM | [14] 34.4 µM | [15] 54.3 µM | [16] 81.8 µM | [18] 27.9 µM

CCOC(=O)C1(C)CCC(C(=O)OC)C1=O (centres undefined)
inactive: [1] > 100 µM | [3] > 100 µM | [4] > 100 µM | [5] > 100 µM | [6] > 100 µM | [8] > 100 µM | [9] 17.1 µM | [11] > 100 µM | [12] > 100 µM | [13] 42.9 µM | [14] 24.6 µM | [15] 87.9 µM | [16] > 100 µM | [18] > 100 µM | [19] > 100 µM

Fc1ccc(C2NC(=S)NC3=C2CCOc2c3ccc3ccccc23)cc1 (centres undefined)
inactive: [1] 24.4 µM | [2] 8.53 µM | [3] 19.8 µM | [4] 82.4 µM | [5] 16.6 µM | [7] 15.7 µM | [8] 18.9 µM | [9] 35 µM | [10] 42.1 µM | [11] 51.9 µM | [20] 18.9 µM | [12] 27.7 µM | [13] 94.8 µM | [15] 19.9 µM | [16] 53.8 µM | [17] 50.8 µM | [18] 44.1 µM
